Source: ChEMBL document CHEMBL3046670, “Synthesis of Esters, Amides, N-Alkylamides and N, N-Dialkylamides of 2, 3-Dimethyl-5-(2, 5-disubstituted phenylaminocarbonyl)-6-pyrazinecarboxylic Acid and Their Phytotoxicity” (1992)
The source made the active and inactive calls. The rule behind the calls is not given here.

Experiments:
Type in all cases: functional
[1] = tested on: Eleusine indica; assay: Inhibition of Eleusine indica germination at 300 ppm after 5 days relative to control; conditions: for inhibition at 300 ppm: 120 h
[2] = tested on: Eleusine indica; assay: Inhibition of Eleusine indica seed germination at 100 ppm after 5 days relative to control; conditions: for inhibition at 100 ppm: 120 h
[3] = tested on: Lactuca sativa; assay: Inhibition of Lactuca sativa longifolia Lams (lettuce) seed germination at 100 ppm after 5 days relative to control; conditions: for inhibition at 100 ppm: 120 h
[4] = tested on: Lactuca sativa; assay: Inhibition of Lactuca sativa longifolia Lams (lettuce) seed germination at 300 ppm after 5 days relative to control; conditions: for inhibition at 300 ppm: 120 h
[5] = tested on: Schoenoplectiella juncoides; assay: Herbicidal activity against Schoenoplectiella juncoides at 50 g a.i./a applied at one-leaf stage by foliar application measured after 3 weeks
[6] = tested on: Sagittaria pygmaea; assay: Herbicidal activity against Sagittaria pygmaea at 50 g a.i./a measured after 3 weeks
[7] = tested on: Echinochloa crus-galli; assay: Herbicidal activity against Echinochloa crus-galli (barnyard grass) at 50 g a.i./a measured after 2 weeks
[8] = tested on: Lactuca sativa; assay: Inhibition of Lactuca sativa longifolia Lams (lettuce) seed germination at 50 ppm after 5 days relative to control; conditions: for inhibition at 50 ppm: 120 h
[9] = tested on: Cyperus serotinus; assay: Herbicidal activity against Cyperus serotinus at 50 g a.i./a measured after 3 weeks
[10] = tested on: Oryza sativa; assay: Herbicidal activity against Oryza sativa (rice) at 50 g a.i./a applied at one-leaf stage by foliar application measured after 3 weeks
[11] = tested on: Eleusine indica; assay: Inhibition of Eleusine indica seed germination at 50 ppm after 5 days relative to control; conditions: for inhibition at 50 ppm: 120 h
[12] = tested on: Schoenoplectiella juncoides; assay: Pre-emergence herbicidal activity against Schoenoplectiella juncoides at 50 g a.i./a measured after 3 weeks

SMILES	inhibition at 300 ppm [1] [%]	inhibition at 100 ppm [2] [%]	inhibition at 100 ppm [3] [%]	inhibition at 300 ppm [4] [%]	inhibition [1]	inhibition [8]	inhibition [2]	inhibition [3]	inhibition [11]	inhibition [4]	also measured
CCC(C)OC(=O)c1nc(C)c(C)nc1C(=O)Nc1cc(C)ccc1C (stereo not given)	15	13	32	36	–	–	–	–	–	–	–
Cc1ccc(C)c(NC(=O)c2nc(C)c(C)nc2C(=O)NCCC(C)C)c1	40	34	41	47	–	–	–	–	–	–	Activity [5]: 20%; Activity [6]: 85%; Activity [7]: 70%; inhibition at 50 ppm [8]: 43%; Activity [9]: 80%; Activity [10]: 99%; inhibition at 50 ppm [11]: 32%; Activity [12]: 100%
Cc1ccc(C)c(NC(=O)c2nc(C)c(C)nc2C(=O)OC(C)C)c1	–	20	–	–	–	–	–	–	–	–	–
CCC(C)NC(=O)c1nc(C)c(C)nc1C(=O)Nc1cc(C)ccc1C (stereo not given)	44	41	65	72	–	–	–	–	–	–	Activity [5]: 50%; Activity [6]: 75%; Activity [7]: 70%; inhibition at 50 ppm [8]: 61%; Activity [9]: 95%; Activity [10]: 99%; inhibition at 50 ppm [11]: 38%; Activity [12]: 100%
Cc1ccc(C)c(NC(=O)c2nc(C)c(C)nc2C(=O)NCC(C)C)c1	50	47	59	62	–	–	–	–	–	–	Activity [5]: 80%; Activity [6]: 95%; Activity [7]: 90%; inhibition at 50 ppm [8]: 55%; Activity [9]: 100%; Activity [10]: 99%; inhibition at 50 ppm [11]: 53%; Activity [12]: 10%
Cc1ccc(C)c(NC(=O)c2nc(C)c(C)nc2C(N)=O)c1	–	20	–	–	–	–	–	–	–	–	–
CCCCCOC(=O)c1nc(C)c(C)nc1C(=O)Nc1cc(C)ccc1C	–	–	–	–	inactive	inactive	inactive	inactive	inactive	inactive	–
CCN(CC)C(=O)c1nc(C)c(C)nc1C(=O)Nc1cc(C)ccc1C	–	–	–	–	inactive	inactive	inactive	inactive	inactive	inactive	–
Cc1ccc(C)c(NC(=O)c2nc(C)c(C)nc2C(=O)N(C)C)c1	–	–	–	–	inactive	inactive	inactive	inactive	inactive	inactive	–
Cc1ccc(C)c(NC(=O)c2nc(C)c(C)nc2C(=O)NC(C)C)c1	36	30	66	68	–	–	–	–	–	–	Activity [5]: 30%; Activity [6]: 0%; Activity [7]: 0%; inhibition at 50 ppm [8]: 58%; Activity [9]: 0%; Activity [10]: 70%; inhibition at 50 ppm [11]: 30%; Activity [12]: 50%
Cc1ccc(C)c(NC(=O)c2nc(C)c(C)nc2C(=O)OCCC(C)C)c1	–	–	–	–	inactive	inactive	inactive	inactive	inactive	inactive	–
CCCCNC(=O)c1nc(C)c(C)nc1C(=O)Nc1cc(C)ccc1C	40	39	35	34	–	–	–	–	–	–	Activity [5]: 60%; Activity [6]: 90%; Activity [7]: 80%; Activity [9]: 100%; Activity [10]: 100%; Activity [12]: 100%
CCCOC(=O)c1nc(C)c(C)nc1C(=O)Nc1cc(Cl)ccc1Cl	–	–	–	–	–	–	inactive	–	–	–	–
Cc1ccc(C)c(NC(=O)c2nc(C)c(C)nc2C(=O)OCC(C)C)c1	–	–	–	–	inactive	inactive	inactive	inactive	inactive	inactive	–
CCCN(CCC)C(=O)c1nc(C)c(C)nc1C(=O)Nc1cc(C)ccc1C	–	–	–	–	inactive	inactive	inactive	inactive	inactive	inactive	–
CCCCOC(=O)c1nc(C)c(C)nc1C(=O)Nc1cc(C)ccc1C	–	–	–	–	inactive	inactive	inactive	inactive	inactive	inactive	–
CCCCN(CCCC)C(=O)c1nc(C)c(C)nc1C(=O)Nc1cc(C)ccc1C	–	–	–	–	inactive	inactive	inactive	inactive	inactive	inactive	–
CCCNC(=O)c1nc(C)c(C)nc1C(=O)Nc1cc(C)ccc1C	47	47	56	54	–	–	–	–	–	–	Activity [5]: 40%; Activity [6]: 0%; Activity [7]: 50%; inhibition at 50 ppm [8]: 43%; Activity [9]: 90%; Activity [10]: 95%; inhibition at 50 ppm [11]: 42%; Activity [12]: 80%
COC(=O)c1nc(C)c(C)nc1C(=O)Nc1cc(Cl)ccc1Cl	–	–	–	–	–	–	inactive	–	–	–	–
CCCC(C)OC(=O)c1nc(C)c(C)nc1C(=O)Nc1cc(C)ccc1C (stereo not given)	33	32	44	50	–	inactive	–	–	inactive	–	–
CCCCCN(CCCCC)C(=O)c1nc(C)c(C)nc1C(=O)Nc1cc(C)ccc1C	–	–	–	–	inactive	inactive	inactive	inactive	inactive	inactive	–
CCOC(=O)c1nc(C)c(C)nc1C(=O)Nc1cc(Cl)ccc1Cl	–	–	–	–	–	–	inactive	–	–	–	–
Cc1nc(C(=O)Nc2cc(Cl)ccc2Cl)c(C(=O)OC(C)C)nc1C	–	–	–	–	–	–	inactive	–	–	–	–
